Patent US8362051B2, “Mold-resistant wallboard” (Rohm and Haas Company, priority 2007, dated 2013)

Experiments:
Type in all cases: cell-based
mold [1] = assay: TAPPI T-487 fungal efficacy test on paper sheets, biocide added to pulp slurry; parameters: key: coverage; 8: 20% mold coverage; 9: 10% mold coverage; 10: no mold growth; settings: average of three sheets
Experimental: (§1) The biocides can be evaluated in the following examples by adding to a 0.4 wt % pulp slurry in water (100% recycle) typically used for gypsum wallboard facing paper. The slurry is filtered through a screen to drain the water from the stock and the resulting paper mat is blotted, couched, and dried to form a paper sheet with a basis weight of approximately 40 lb/1000 ft2. Three sheets per condition are prepared. High Performance Liquid Chromatography (HPLC) is used to determine the amount of biocide present in each sheet. The paper sheets are evaluated for fungal growth via ASTM 3273, currently the industry standard for mold-resistant wallboard, as well as the standard TAPPI T-487 fungal efficacy test.
(§2) The values in Tables 1 and 2 below represent data from samples made substantially according to the preceding protocol. The average concentration of active biocide in the paper and the average test rating based on three paper sheets are shown. Based on tables 1 and 2, approximately 4-4.5 times more DIMTS active was needed in the paper sheet than OIT before no mold growth was observed throughout the entire testing period.
(§3) For ASTM 3273, a 4-week test, the following rating scale applies: • 0—100% mold coverage • 1—90% mold coverage • 2—80% mold coverage • 3—70% mold coverage • 4—60% mold coverage • 5—50% mold coverage • 6—40% mold coverage • 7—30% mold coverage • 8—20% mold coverage • 9—10% mold coverage • 10—no mold growth For TAPPI T-487, a 3-week test, the following rating scale applies: • 0—no mold growth • 1—25% mold coverage • 2—50% mold coverage • 3—75% mold coverage • 4—100% mold coverage

mold [2] = assay: ASTM-G21 Fungal Resistant Test Method on paper handsheets; parameters: key: 0: None; Traces of growth (<10%); 2: Light growth (10-30%); Medium growth (30-60%); 4: Heavy growth (60-complete coverage); settings: for Mold Resistance Rating Week 1 A / Mold Resistance Rating Week 2 A: replicate A; for Mold Resistance Rating Week 1 B / Mold Resistance Rating Week 2 B: replicate B
Experimental: Results are compared with paper hand sheets incorporating DIMTS in the same manner, as well as handsheets with no biocide added. Handsheets are formed using a commercial handsheet mold which makes sheets 8×8 inches in area. The weights of the handsheets are 11-12 lbs/1000 ft^2 representing the typical basis weight of just the liner (outer facing plys) of the multi-ply wallboard paper. The 3:1 carbendazim/IPBC blend is added to the paper slurry (0.7 wt %) prior to forming the handsheets. Recycled news print paper is used as the source of fiber for handsheets. High Performance Liquid Chromatography (HPLC) is used to determine the amount of biocide present in each sheet, however, this method is not capable of detecting the levels of IPBC in the handsheets, therefore only carbendazim values are reported in Table 4 as weight of active (mg) per kg of paper. The handsheets are evaluated for fungal resistance using ASTM G21 over a two-week test period. A and B represent replicate analyses of same handsheet in Table 4.

mold [3] = assay: TAPPI T-487 test on surface-treated paper; parameters: key to TAPPI T-487 rating Week 1 / TAPPI T-487 rating Week 2 / TAPPI T-487 rating Week 3: 100% mold coverage; 1: 90% mold coverage; 2: 80% mold coverage; 3: 70% mold coverage; 4: 60% mold coverage; 50% mold coverage; 6: 40% mold coverage; 7: 30% mold coverage; 8: 20% mold coverage; 9: 10% mold coverage; 10: no mold growth; settings: surface treatment, average of three sheets
Experimental: The papers of this example were prepared via surface treatment. The values in Table 3 below represent the average concentration of active biocide in the paper and the average […]-487 test rating based on three paper sheets.

mold [4] = assay: ASTM 3273 fungal growth test on paper sheets, biocide added to pulp slurry; parameters: key to ASTM 3273 rating Week 1: 0: 100% mold coverage; 1: 90%; 2: 80%; 3: 70%; 4: 60%; 5: 50%; 6: 40%; 7: 30%; 8: 20%; 9: 10%; 10: no mold growth coverage; 8: 20% mold coverage; 9: 10% mold coverage; 10: no mold growth; key to ASTM 3273 rating Week 2 / ASTM 3273 rating Week 3 / ASTM 3273 rating Week 4: 100% mold coverage; 1: 90% mold coverage; 2: 80% mold coverage; 3: 70% mold coverage; 4: 60% mold coverage; 50% mold coverage; 6: 40% mold coverage; 7: 30% mold coverage; 8: 20% mold coverage; 9: 10% mold coverage; 10: no mold growth; settings: for ASTM 3273 rating Week 1 / ASTM 3273 rating Week 2 / ASTM 3273 rating Week 3 / ASTM 3273 rating Week 4: average of three sheets
Experimental: as §1, §2, §3

## Cc1ccc(S(=O)(=O)C(I)I)cc1 [DIMTS, diiodomethyltolylsulfone]
Mold [1]; 386 ppm in paper sheet
  TAPPI T-487 rating Week 1: 0
  TAPPI T-487 rating Week 2: 2 (50% mold coverage)
  TAPPI T-487 rating Week 3: 3 (75% mold coverage)
Mold [1]; 553 ppm in paper sheet
  TAPPI T-487 rating Week 1: 0
  TAPPI T-487 rating Week 2: 2 (50% mold coverage)
  TAPPI T-487 rating Week 3: 3 (75% mold coverage)
Mold [1]; 855 ppm in paper sheet
  TAPPI T-487 rating Week 1: 0
  TAPPI T-487 rating Week 2: 0
  TAPPI T-487 rating Week 3: 0
Mold [2]; 281 ppm active in handsheet
  Mold Resistance Rating Week 1 A: 1 (Traces of growth (<10%))
  Mold Resistance Rating Week 1 B: 1 (Traces of growth (<10%))
  Mold Resistance Rating Week 2 A: 4 (Heavy growth (60-complete coverage))
  Mold Resistance Rating Week 2 B: 4 (Heavy growth (60-complete coverage))
Mold [2]; 297 ppm active in handsheet
  Mold Resistance Rating Week 1 A: 1 (Traces of growth (<10%))
  Mold Resistance Rating Week 1 B: 1 (Traces of growth (<10%))
  Mold Resistance Rating Week 2 A: 4 (Heavy growth (60-complete coverage))
  Mold Resistance Rating Week 2 B: 4 (Heavy growth (60-complete coverage))
Mold [2]; 354 ppm active in handsheet
  Mold Resistance Rating Week 1 A: 0
  Mold Resistance Rating Week 1 B: 0
  Mold Resistance Rating Week 2 A: 1 (Traces of growth (<10%))
  Mold Resistance Rating Week 2 B: 1 (Traces of growth (<10%))
Mold [2]; 732 ppm active in handsheet
  Mold Resistance Rating Week 1 A: 0
  Mold Resistance Rating Week 1 B: 0
  Mold Resistance Rating Week 2 A: 0
  Mold Resistance Rating Week 2 B: 0
Mold [2]; 748 ppm active in handsheet
  Mold Resistance Rating Week 1 A: 0
  Mold Resistance Rating Week 1 B: 0
  Mold Resistance Rating Week 2 A: 0
  Mold Resistance Rating Week 2 B: 0
Mold [3]; 43 ppm in paper
  TAPPI T-487 rating Week 1: 2 (50% mold coverage)
  TAPPI T-487 rating Week 2: 4 (100% mold coverage)
  TAPPI T-487 rating Week 3: 4 (100% mold coverage)
Mold [3]; 563 ppm in paper
  TAPPI T-487 rating Week 1: 0
  TAPPI T-487 rating Week 2: 0
  TAPPI T-487 rating Week 3: 0
Mold [3]; 5389 ppm in paper
  TAPPI T-487 rating Week 1: 0
  TAPPI T-487 rating Week 2: 0
  TAPPI T-487 rating Week 3: 0
Mold [4]; 370 ppm in paper sheet
  ASTM 3273 rating Week 1: 10
  ASTM 3273 rating Week 2: 8 (20% mold coverage)
  ASTM 3273 rating Week 3: 0 (100% mold coverage)
  ASTM 3273 rating Week 4: 0 (100% mold coverage)
Mold [4]; 660 ppm in paper sheet
  ASTM 3273 rating Week 1: 10
  ASTM 3273 rating Week 2: 8 (20% mold coverage)
  ASTM 3273 rating Week 3: 7 (30% mold coverage)
  ASTM 3273 rating Week 4: 6 (40% mold coverage)
Mold [4]; 1272 ppm in paper sheet
  ASTM 3273 rating Week 1: 10
  ASTM 3273 rating Week 2: 10
  ASTM 3273 rating Week 3: 10
  ASTM 3273 rating Week 4: 10
Mold [4]; approximately, based on tables 1 and 2 (ASTM 3273 and TAPPI T-487)
  DIMTS active needed in the paper sheet relative to OIT before no mold growth was observed throughout the entire testing period: 4-4.5 times
